The Deep4Chem optical property database
Where “and” joins values, the source holds several entries; their conditions need not be identical. Equal values may be shown once.

Experiment: solvent given as SMILES

`COC(=O)c1cc(=O)n(C)c2cc(-c3ccc4c(c3)OCO4)sc12` showed an absorption maximum (in CC#N) of 400 nm and an absorption maximum (in ClCCl) of 404 nm.
`COc1ccc(-c2csc(/C(C#N)=C/c3ccccc3Cl)n2)cc1` gave an absorption maximum (in CC#N) of 372 nm.
For `Cc1ccc2c(c1)c1cc(C)ccc1n2-c1cccc(-n2c3ccc(C)cc3c3cc(C)ccc32)c1C#N`, the absorption maximum (in Cc1ccccc1) was 368 nm.
Compound `COc1nc(Nc2ccc3ccc4cccc5ccc2c3c45)nc(OC)n1` has an absorption maximum (in CC#N) of 340 nm, an absorption maximum (in CCCCOCCCC) of 341 nm and an absorption maximum (in CO) of 340 nm.
`CC(C)(C)c1ccc2cc3c4cccc5cccc(c6cc(C(C)(C)C)cc(c2c1)c63)c54` gave an absorption maximum (in CC1CCCCC1) of 438 nm.
For `CCCCCCCCCCCCN1C(=O)c2c(c3ccc4cc(-c5ccc(Cl)cc5)c(OC)cc4c3c3c2ccc2cc(-c4ccc(Cl)cc4)c(OC)cc23)C1=O`, the absorption maximum (in ClCCl) was 430 nm.
`COc1ccc(-c2ccccc2)cc1` gave an absorption maximum (in C1CCCCC1) of 265.82 nm.
Work on `CCN(CC)c1ccc(C(=C(c2ccc(B(c3c(C)cc(C)cc3C)c3c(C)cc(C)cc3C)cc2)c2ccc(B(c3c(C)cc(C)cc3C)c3c(C)cc(C)cc3C)cc2)c2ccc(N(CC)CC)cc2)cc1` yielded an absorption maximum (in C1CCOC1) of 431 nm.
`Cc1cc(=O)oc2cc3cc(O)ccc3cc12` gave an absorption maximum (in CC#N) of 343 nm and an absorption maximum (in CCO) of 357 nm.
`Oc1ccc2ccccc2c1/C=N/c1ccccc1/N=C/c1c(O)ccc2ccccc12` showed an absorption maximum (in CC#N) of 429 nm.
With `CC1=[N+]2C(=C(c3ccc(N(C)C)cc3)c3ccc(C)n3[B-]2(F)F)C=C1` the absorption maximum (in C1CCCCC1) was 508 nm, the absorption maximum (in C1CCOC1) was 506 nm and the absorption maximum (in CC#N) was 503 nm. For the same compound, the absorption maximum (in CC(=O)C(C)(C)C) was 505 nm, the absorption maximum (in CC(C)=O) was 504 nm and the absorption maximum (in CCCCCC) was 507 nm. For the same compound, the absorption maximum (in CCOC(C)=O) was 505 nm and 504 nm, the absorption maximum (in CO) was 504 nm and 503 nm and the absorption maximum (in Cc1ccccc1) was 509 nm. It also gave an absorption maximum (in ClC(Cl)Cl) of 509 nm.
Work on `CC(C)c1ccc2ccc3c(C(C)C)ccc4ccc1c2c43` yielded an absorption maximum (in CCCCCC) of 345 nm, an absorption maximum (in CO) of 343 nm and an absorption maximum (in ClCCl) of 346 nm.
With `C[Si](C)(C)c1ccc([Si](C)(C)C)c2ccccc12` the absorption maximum (in C1CCCCC1) was 300 nm.
Compound `c1cc2ccc3sc4ccc5cccc6c(c1)c2c3c4c56` has an absorption maximum (in ClC(Cl)Cl) of 412 nm.
Work on `COc1cc(C(=O)O)cc(OC)c1O` yielded an absorption maximum (in O) of 260 nm.
In the case of `CCn1c2ccccc2c2cc(C#Cc3cc(C#Cc4ccc5c(c4)c4ccccc4n5CC)nc(SC)n3)ccc21`, the absorption maximum (in C1CCOC1) is reported as 396 nm, the absorption maximum (in CCOC(C)=O) is reported as 392 nm and the absorption maximum (in CN(C)C=O) is reported as 399 nm. It also gave an absorption maximum (in Cc1ccccc1) of 396 nm and an absorption maximum (in ClCCl) of 396 nm.
Work on `COc1ccc2cc(-c3ccc(S(C)(=O)=O)cc3)oc(=O)c2c1` yielded an absorption maximum (in CCO) of 331 nm, an absorption maximum (in CCOC(C)=O) of 331 nm and an absorption maximum (in CN(C)C=O) of 333 nm. It also gave an absorption maximum (in CO) of 330 nm and an absorption maximum (in ClC(Cl)Cl) of 334 nm.
`COC(=O)c1ccc(/C=C2\C=C(c3ccc(OC)c(OC)c3)OC2=O)cc1` gave an absorption maximum (in C1COCCO1) of 423 nm.
Work on `COc1ccc2c(c1)[nH]c1c3[nH]c4cc(OC)ccc4c3c3nsnc3c21` yielded an absorption maximum (in CN(C)C=O) of 436 nm, an absorption maximum (in Cc1ccccc1) of 425 nm and an absorption maximum (in ClCCl) of 430 nm.
Work on `CCCCCCc1ccc2c3c(ccc2c1)O[B-](c1ccccc1)(c1ccccc1)[N+](c1cc([N+]2=Cc4c(ccc5cc(CCCCCC)ccc45)O[B-]2(c2ccccc2)c2ccccc2)cc([N+]2=Cc4c(ccc5cc(CCCCCC)ccc45)O[B-]2(c2ccccc2)c2ccccc2)c1)=C3` yielded an absorption maximum (in C1CCOC1) of 445 nm, an absorption maximum (in CC#N) of 440 nm and an absorption maximum (in Cc1ccccc1) of 453 nm. For the same compound, the absorption maximum (in ClCCl) was 450 nm.
Compound `Fc1ccc(-c2c3ccccc3nc3cc4ccccc4cc23)cc1` has an absorption maximum (in ClCCl) of 400 nm.
For `Cc1cc(=O)oc2c3c4c(cc12)CCCN4CCC3`, the absorption maximum (in C1CCCCC1) was 361 nm, the absorption maximum (in CC#N) was 380 nm and the absorption maximum (in CCO) was 387 nm. It also gave an absorption maximum (in O) of 396 nm.
For `CCOC(=O)CSc1nc2c(c(C#N)c1C#N)CCCC2`, the absorption maximum (in c1ccccc1) was 364 nm.
`CC(C)[Si](C#Cc1c2ccc(C(C)(C)C)cc2c(C#Cc2c3ccc(C(C)(C)C)cc3c(C#C[Si](C(C)C)(C(C)C)C(C)C)c3ccc(C(C)(C)C)cc23)c2ccc(C(C)(C)C)cc12)(C(C)C)C(C)C` showed an absorption maximum (in Cc1ccccc1) of 523 nm.
For `C(=C\c1ccc(N(c2ccccc2)c2ccccc2)cc1)/c1ccc(-c2cc(-c3ccccn3)nc(-c3ccccn3)c2)cc1`, the absorption maximum (in C1CCOC1) was 382 nm, the absorption maximum (in C1COCCO1) was 382 nm and the absorption maximum (in CC#N) was 379 nm. It also gave an absorption maximum (in CCO) of 379 nm and an absorption maximum (in ClCCl) of 383 nm.
Work on `COc1ccc(-c2nc(-c3ccccc3OC)[nH]c2-c2ccc(OC)cc2)cc1` yielded an absorption maximum (in CO) of 299 nm.
`CC[n+]1c(C=C2C(=O)C(C=C3N(C)c4ccccc4C3(C)C)=C2[O-])sc2ccccc21` showed an absorption maximum (in CO) of 635 nm, an absorption maximum (in ClC(Cl)Cl) of 649 nm and an absorption maximum (in ClCCl) of 650 nm.
With `C(=C\c1ccc(/C=C/c2ccc(N(c3ccccc3)c3ccccc3)cc2)c2nsnc12)/c1ccc(N(c2ccccc2)c2ccccc2)cc1` the absorption maximum (in C1CCOC1) was 512 nm, the absorption maximum (in CCOC(C)=O) was 502 nm and the absorption maximum (in CN(C)C=O) was 513 nm. It also gave an absorption maximum (in Cc1ccccc1) of 521 nm, an absorption maximum (in ClC(Cl)Cl) of 514 nm and an absorption maximum (in ClCCl) of 512 nm.
Compound `Cc1ccc(C2=[N+]3C(=Cc4ccc(C)n4[B-]3(F)F)c3ccccc32)[nH]1` has an absorption maximum (in C1CCOC1) of 599 nm, an absorption maximum (in CC#N) of 592 nm and an absorption maximum (in CCCCCC) of 602 nm. The absorption maximum (in CO) was 595 nm, the absorption maximum (in Cc1ccccc1) was 606 nm and the absorption maximum (in ClCCl) was 600 nm.
Compound `CCN(CC)c1ccc2c(-c3ccccc3C(=O)O)c3c([o+]c2c1)/C(=C/c1ccc2c(c1)c1ccccc1n2CC)CCC3` has an absorption maximum (in ClCCl) of 646 nm.
`F[B-]1(F)n2c(-c3ccccc3)cc(-c3cccs3)c2N=C2C(c3cccs3)=CC(c3ccccc3)=[N+]21` gave an absorption maximum (in ClCCl) of 683 nm.
With `CC(C)(C)[Si](C)(C)c1ccc([Si](C)(C)C(C)(C)C)c2ccccc12` the absorption maximum (in C1CCCCC1) was 302 nm.
Work on `CCOc1cc2c(cc1/C=C/C(=C(C#N)C#N)c1ccccc1)c1ccccc1n2CC` yielded an absorption maximum (in C1CCOC1) of 462 nm, an absorption maximum (in CC#N) of 462 nm and an absorption maximum (in CCO) of 468 nm. The absorption maximum (in CCOC(C)=O) was 458 nm, the absorption maximum (in CN(C)C=O) was 471 nm and the absorption maximum (in CS(C)=O) was 476 nm. The absorption maximum (in Cc1ccccc1) was 462 nm, the absorption maximum (in ClC(Cl)Cl) was 470 nm and the absorption maximum (in ClCCl) was 468 nm.
Work on `O=Cc1ccc(/C=C/c2nc(N3CCOCC3)c3c([n+]2[O-])CCCC3)cc1` yielded an absorption maximum (in ClCCl) of 418 nm.
With `COCCOCCOCCOc1ccc(OCCOCCOCCOC)c(C=O)c1` the absorption maximum (in CC(C)(C)O) was 349 nm, the absorption maximum (in CC(C)CO) was 349 nm and the absorption maximum (in CC(C)O) was 349 nm. The absorption maximum (in CCCCO) was 348 nm, the absorption maximum (in CCCO) was 348 nm and the absorption maximum (in CCO) was 348 nm. It also gave an absorption maximum (in CN(C)C=O) of 349 nm, an absorption maximum (in CNC=O) of 349 nm and an absorption maximum (in CO) of 348 nm. The absorption maximum (in NC=O) was 352 nm and the absorption maximum (in O) was 350 nm.
For `COc1ccc(-c2cccc3ncc(-c4ccc(C#N)cc4)n23)cc1`, the absorption maximum (in ClCCl) was 329 nm.
Compound `Cc1cc(C)c(C2=C3C=CC=[N+]3[B-]3(c4cccc5ccccc45)Oc4cc(O)cc5c6ccc(C)cc6c6cc2n3c6c45)c(C)c1` (stereo not given) has an absorption maximum (in ClC(Cl)Cl) of 646 nm.
Compound `CC(C)[Si]1(C(C)C)c2cc(C#N)ccc2-c2ccc(N(C)C)cc21` has an absorption maximum (in C1CCCCC1) of 357 nm, an absorption maximum (in CC#N) of 360 nm and an absorption maximum (in CCO) of 360 nm. The absorption maximum (in CCOCC) was 358 nm, the absorption maximum (in CS(C)=O) was 375 nm and the absorption maximum (in ClCCl) was 368 nm. For the same compound, the absorption maximum (in c1ccccc1) was 360 nm.
In the case of `CN(C)c1ccc(C2=[N+]3C(=Nc4c5ccccc5c(-c5ccc(N(C)C)cc5)n4[B-]3(F)F)c3ccccc32)cc1`, the absorption maximum (in ClCCl) is reported as 794 nm.
Work on `CC1(C)c2ccccc2N(c2ccc3c(c2)c2cc(N4c5ccccc5C(C)(C)c5ccccc54)cc4c5ccccc5n3c42)c2ccccc21` yielded an absorption maximum (in C1CCOC1) of 367 nm.
`C(C#Cc1ccc2ccc3cccc4ccc1c2c34)#Cc1cccc2ccccc12` gave an absorption maximum (in C1CCCCC1) of 409 nm, an absorption maximum (in CC#N) of 407 nm and an absorption maximum (in CO) of 406 nm. The absorption maximum (in ClCCl) was 412 nm.
`CCCCCCCCn1c2ccccc2c(=O)c2ccccc21` showed an absorption maximum (in CS(C)=O) of 404 nm.
Work on `CC1=CC(C)=[N+]2C1=C(c1ccccc1)c1c(C)c(-c3cccs3)c(C)n1[B-]2(F)F` yielded an absorption maximum (in CO) of 507 nm, an absorption maximum (in Cc1ccccc1) of 513 nm and an absorption maximum (in ClCCl) of 511 nm.
`Cc1ccccc1C` gave an absorption maximum (in C1CCCCC1) of 258.26 nm.
With `O=C(/C=C/c1cn(-c2ccccc2)nc1-c1ccccc1)c1c(O)c2ccccc2oc1=O` the absorption maximum (in C1CCOC1) was 406 nm, the absorption maximum (in C1COCCO1) was 405 nm and the absorption maximum (in CCO) was 400 nm. The absorption maximum (in CCOC(C)=O) was 402 nm, the absorption maximum (in CN(C)C=O) was 381 nm and the absorption maximum (in CO) was 352 nm. For the same compound, the absorption maximum (in CS(C)=O) was 401 nm, the absorption maximum (in Cc1ccccc1) was 409 nm and the absorption maximum (in ClC(Cl)Cl) was 405 nm. For the same compound, the absorption maximum (in ClCCl) was 404 nm.
With `CCCCCCc1ccc(-n2c3[n+](c4c5ccccc5c5ccccc5c42)[B-](C)(C)c2ccccc2-3)cc1` the absorption maximum (in C1CCOC1) was 359 nm, the absorption maximum (in CC#N) was 359 nm and the absorption maximum (in Cc1ccccc1) was 361 nm. For the same compound, the absorption maximum (in ClCCl) was 361 nm.
In the case of `c1cc2c3c(cccc3c1)-c1c-2ccc2ccc3ccccc3c12`, the absorption maximum (in CCCCCCC) is reported as 408 nm.
Compound `CCCCCCCCCCCCCCCCCCOc1ccc(C#Cc2cc3nc4c(OCCCCCCCCCCCC)cc5c6cc(OCCCCCCCCCCCC)c(OCCCCCCCCCCCC)cc6c6cc(OCCCCCCCCCCCC)c(OCCCCCCCCCCCC)cc6c5c4nc3cc2C#Cc2ccc(OCCCCCCCCCCCCCCCCCC)cc2)cc1` has an absorption maximum (in ClC(Cl)Cl) of 487 nm.
In the case of `Cc1ccc(/C=C/c2nc(-c3ccc([N+](=O)[O-])cc3)[nH]c2/C=C/c2ccc(C)cc2)cc1`, the absorption maximum (in ClCCl) is reported as 445 nm.
`Cc1cc(C)c(C2=C(c3c(C)sc(-c4ccc(-c5nc(-c6ccccc6)c(-c6ccccc6)[nH]5)cc4)c3C)C(F)(F)C(F)(F)C2(F)F)s1` showed an absorption maximum (in C1CCOC1) of 332 nm.
In the case of `O=S1(=O)c2ccc(-c3ccc(-n4c5ccccc5c5ccccc54)cc3)cc2C2(c3ccccc3-c3ccccc32)c2cc(-c3ccc(-n4c5ccccc5c5ccccc54)cc3)ccc21`, the absorption maximum (in ClCCl) is reported as 341 nm.
For `CC1(C)c2ccccc2N(c2ccc(-c3nc4c(C#N)ccc(C#N)c4nc3-c3ccc(N4c5ccccc5C(C)(C)c5ccccc54)cc3)cc2)c2ccccc21`, the absorption maximum (in Cc1ccccc1) was 479 nm.
